# In patent US11033537B2, “LPT-723 and immune checkpoint inhibitor combinations and methods of treatment” (BIOMED VALLEY DISCOVERIES, INC., priority 2015, dated 2021):
# How the values were obtained:
# Type in all cases: cell-based, murine
# [1] = test system: Pan02 cells; assay: In vitro cell viability assay (CellTiter-Glo), Pan02
# Text: No significant changes in body weights were noted.
# [2] = test system: A20 cells; assay: In vitro cell viability assay, A20
# [3] = test system: MBT-2 cells; assay: In vitro cell viability assay, MBT-2
smiles,measurement,setting,value
"N.N.[Cl][Pt][Cl] [Cisplatin, reference compound]",IC50,[1],1090 nM
same,IC50,[2],1070 nM
same,IC50,[3],6870 nM
